{"source": "patent US20260242350A1", "about": "“POLYCYCLIC THYROID HORMONE BETA RECEPTOR AGONIST AND USE THEREOF” (CASCADE PHARMACEUTICALS, INC., priority 2023, published 2026)", "key": {"[1]": {"target": "T1, THRα LBD (His-GST-dLBT-THRα LBD) (Homo sapiens, UniProt P10827)", "T1 construct": "made in house; host or cells: E. coli BL21 (DE3)", "T1 sequence (P10827 163-407 isoform P10827-2)": "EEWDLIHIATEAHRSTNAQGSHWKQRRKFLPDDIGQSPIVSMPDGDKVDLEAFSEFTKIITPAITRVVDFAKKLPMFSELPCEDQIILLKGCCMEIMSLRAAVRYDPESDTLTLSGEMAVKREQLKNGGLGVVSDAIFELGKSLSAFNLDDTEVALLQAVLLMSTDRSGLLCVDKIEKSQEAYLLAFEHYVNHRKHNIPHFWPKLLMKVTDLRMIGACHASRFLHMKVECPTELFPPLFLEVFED", "test": "THR-FRET (time-resolved fluorescence resonance energy transfer) agonist activity assay, THRα", "assay_type": "biochemical", "settings": "24 h at room temperature", "description": "(§1) Experimental Example 1: Detection of Agonist Activities of Compounds Against THRα/β Based on Time-Resolved Fluorescence Resonance Energy Transfer (THR-FRET)\n(§2) 1. Construction of THRα/β Overexpression Vectors\n(§3) By visiting NCBI, the THRα/β LBD domain sequences were found. The pET21-His-GST-dLBT-THRα LBD and pET21-His-GST-dLBT-THRβLBD overexpression vectors were constructed by the fusion method, and sequenced to confirm the accuracy of the sequences.\n(§4) 2. Prokaryotic Expression of Recombinant Proteins in E. coli\n(§5) The THRα LBD and THRβLBD overexpression vectors confirmed by sequencing were transfected into E. coli cells BL21 (DE3), and spread on an ampicillin-resistant agar plate. Monoclones were picked out and amplified in an LB medium, and transferred into 1 L LB at a ratio of 1:100 for large-scale culture. When the OD value was at 0.8 to 1.2, 0.5 mM isopropyl-beta-D-thiogalactopyranoside (IPTG) was added, and induced overnight at 18° C. The bacteria were harvested, disrupted, and purified via the GST column and the molecular sieve to obtain two proteins His-GST-dLBT-THRα LBD and His-GST-dLBT-THRβLBD.\n(§6) 3. Preparation of Compounds and Formulation of Reaction System\n(§7) The proteins were taken out from a refrigerator at −80° C. The protein s with the GST-tagged THRα/p LBD domain and the Eu-labelled GST antibodies were thawed slowly on ice, and an assay buffer containing a final concentration of 5 mM dithiothreitol (DTT) was formulated.\n(§8) 3.1 Preparation of Compounds\n(§9) The starting concentration of the compound was 10 μM (in DMSO). The compound (100 μM in DMSO) was subjected to 3-fold isogradient dilution with DMSO to obtain a total of 11 isogradient concentrations. Subsequently, the above compounds at the isogradient concentration were further subjected to 50-fold dilution with an assay buffer containing 5 mM DTT.\n(§10) 3.2 Formulation of THR-FRET Reaction System\n(§11) The final concentrations of all components were calculated based on a system with a final volume of 20 µL per well. To […] of assay buffer containing 5 mM DTT, the GST-tagged THRα/β proteins, the SRC2 ([…]) polypeptide, XL665 (Cisobio, #610SAXLB), and the Eu-labeled GST antibody were added, and the final concentrations were 2 nM, 200 nM, 0.05 nM, and 7.6 nM respectively to formulate 18 μL of reaction mixture of the proteins, polypeptide, and antibody per well.\n(§12) 18 μL of reaction mixture and 2 μL of diluted compound were added into an optiplate-384-well plate, and reacted at room temperature for 24 h.\n(§13) The plate was read using an MD i3x multi-mode microplate reader with the excitation and emission wavelengths of 340 nm and 665 nm, respectively. The intensity of light at a wavelength of 616 nm generated by europium excited by 340 nm wavelength light from the MD i3x multi-mode microplate reader was used as the background. According to the different activation degrees of different compounds against THRα and THRβ, the intensity of the emission light at a wavelength of 665 nm generated by exciting XL665 with the exciting light at a wavelength of 616 nm was varied. The intensity ratio between these two light wavelengths (665 nm, 616 nm) was used as the activation activity of the compound against THRα or THRβ, and was normalized against the ratio in the vehicle DMSO group. The dose-response curve was fitted with four parameters using the GraphPad Prism 6.0 software, and the EC50 value was calculated."}, "[2]": {"target": "T2, THRβ LBD (His-GST-dLBT-THRβLBD) (Homo sapiens, UniProt P10828)", "T2 construct": "made in house; host or cells: E. coli BL21 (DE3)", "T2 sequence (P10828 217-461 limits assumed)": "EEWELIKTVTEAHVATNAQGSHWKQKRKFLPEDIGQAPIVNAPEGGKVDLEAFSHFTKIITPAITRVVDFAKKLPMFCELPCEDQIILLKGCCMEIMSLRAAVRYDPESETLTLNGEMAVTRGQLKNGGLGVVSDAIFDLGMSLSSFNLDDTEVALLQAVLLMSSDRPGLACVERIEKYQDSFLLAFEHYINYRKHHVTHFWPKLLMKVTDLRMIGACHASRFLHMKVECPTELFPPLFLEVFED", "test": "THR-FRET (time-resolved fluorescence resonance energy transfer) agonist activity assay, THRβ", "assay_type": "biochemical", "description": "as §1, §2, §3, §4, §5, §6, §7, §8, §9, §10, §11, §12, §13"}, "[3]": {"target": "T3, THRβ (pGAL4-THRβ-LBD) (Homo sapiens, UniProt P10828)", "T3 construct": "expressed in transfected cells; host or cells: HEK293T", "T3 sequence (P10828 217-461)": "T2 sequence (P10828 217-461 limits assumed)", "test": "Reporter gene (Dual-Glo luciferase) agonist activity assay in HEK293T cells, THRβ", "assay_type": "cell-based", "settings": "ratio of EC50 THRα/THRβ", "description": "Experimental Example 2: Detection of Agonist Activities of Compounds Against THRα and THRβ Based on Reporter Gene Activity Assay Method\n1.1 Construction and Preparation of Plasmids pGAL4-THR-LBD and pG5-Luc\nThe pGAL4-THRα-LBD and pGAL4-THRβ-LBD plasmids used in the reporter gene assay system were constructed by a conventional molecular cloning method comprising the following main steps: the cDNA sequences of THRα (NM_003250) and THRβ(NM_000461) corresponding to the amino acid sequences of THRα (163-407AA) and THRβ(217-461AA) were inserted into the BamHI and NotI enzyme digestion sites of the pGAL4 vector by the PCR technique respectively to obtain the pGAL4-THRα-LBD and pGAL4-THRβ-LBD plasmids; the pG5-Luc (#E249A) and pRL-TK (#E2241) plasmids were purchased from Promega; the plasmids were transfected into the E. coli DH5a by the CaCl2 method, and after further culture and amplification, the plasmids were purified by Plasmid Extraction Kits (TIANGEN, #D107) to obtain the corresponding plasmid DNAs.\n1.2 Co-Transfection of Plasmids into HEK293T Cells and Treatment with Compounds\nThe HEK293T cells were inoculated into a 96-well plate at a density of 1×10^4/well the day before plasmid transfection. Cell transfection was conducted according to the instructions of the transfection reagent FuGENE® HD (Promega, #E2311). The main steps were as follows: taking one well as an example here, the plasmids pGAL4-THRα-LBD or pGAL4-THRβ-LBD, pG5-Luc, and pRL-TK were added in the proportions of 20 ng, 50 ng, and 5 ng to 10 μL of Opti-MEM™ I medium (Gibco, #11058021) and mixed well; subsequently, 0.25 μL of FuGENE® HD was added, mixed well, and then left at room temperature for 5 min; afterwards, […] was added to the cell wells containing 100 μL of culture medium. After cell co-transfection for 6 h, the compound was diluted in a 3-fold gradient with dimethyl sulfoxide at the highest concentration of 1 μM. The compound was added to the cell culture medium at a total of 10 concentrations for treatment for 24 h. There were a total of two duplicate wells for each concentration. Triiodothyronine (T3) was used as the positive control.\n1.3 Dual-Glo Luciferase Assay\nAfter the cells were treated with the compound for 24 h, the cells were assayed according to the instructions of Dual-Glo® Luciferase Assay System (Promega, #E2940). The main steps were as follows: 50 μL of culture medium was aspirated from each well and discarded, and then 50 μL of Dual-Glo® Luciferase reagent was added and oscillated at room temperature for 10 min; 80 μL of lysis reaction solution was measured into a white opaque optiPlate-96-well plate, and the luminescence signal value (Firefly-Luc) of the Firefly luciferase was detected using an MD i3x multi-mode microplate reader; 40 μL of Dual-Glo® Stop & Glo® reagent was then added, and oscillated at room temperature for 10 min; the luminescence signal value (Renilla-Luc) of the Renilla luciferase was then detected using an MD i3x multi-mode microplate reader. The Firefly-Luc/Renilla-Luc ratio was used as the activation activity of the compound against THR, and was normalized against the ratio in the vehicle DMSO group; the dose-response curve was fitted with four parameters using the GraphPad Prism6.0 software, and the EC50 value was calculated."}}, "data": [{"smiles": "Cc1cccc2c1c(=O)ccn2Cc1c(Cl)cc(-n2nc(C(F)F)c(=O)[nH]c2=O)cc1Br", "note": "[Compound 48]", "values": [{"measurement": "EC50", "setting": "[1]", "result": "< 50", "unit": "nM"}, {"measurement": "EC50", "setting": "[2]; 24 h at room temperature", "result": "< 50", "unit": "nM"}, {"measurement": "Selectivity (THRα/THRβ)", "setting": "[2]; ratio of EC50 THRα/THRβ", "result": "†† (10 > THRα/β > 1)"}, {"measurement": "Selectivity (THRα/THRβ)", "setting": "[3]", "result": "† (5 ≥ THRα/β)"}]}]}
